Each structure is given as a SMILES string.

The test deals with human cytomegalovirus (HCMV). Briefly: Antiviral activity against HCMV in vitro (virus yield / replication assay, IE protein readout). The class given is cell-based. Conditions: Human betaherpesvirus 5, 96 h, read-out: HCMV IC50. How it is done:
Assessing Antiviral Activity Against Human Cytomegalovirus (HCMV)
To assess their antiviral activity, some compounds were tested against human cytomegalovirus (HCMV) in vitro. Human MRCS cells were grown in Dulbecco's Modified Eagle Medium (DMEM) supplemented with 10% fetal bovine serum (FBS) and infected with an HCMV variant expressing GFP tagged pUL99 (the product of late viral UL99 gene) at a multiplicity of 1 infectious unit (IU) per cell. One hour later, medium of the cells was replaced with fresh medium containing the indicated compounds at 50, 25, 12.5, 6.25, 3.13, 1.56, 0.78, 0.39 μM or the carrier in which the compounds are dissolved (DMSO). Final concentration of DMSO was 0.5% in each treatment. Virus yield in the culture supernatant was determined at 96 hours after infection by infecting fresh MRCS cells and assaying viral IE1 protein expression. Results were plotted using either Prism Software or CDD Vault (CDD Vault was developed by Collaborative Drug Discovery, Inc., 1633 Bayshore Hwy, Suite 342, Burlingame, Calif. 94010) in order to calculate IC50s.
Alternatively, antiviral efficacy of some compounds was assessed by inhibition of HCMV replication during in vitro replication assays. Briefly, confluent monolayers of MRCS fibroblasts in a 96 well plate format (˜1.0×10^4 cells/well) were infected with an AD169 strain of HCMV for one hour. After the initial incubation hour, virus containing media was removed and 100 ul of media with sequential dilutions of FORGE compounds added to each well. The concentrations of the FORGE compounds were 50 μM, 25 μM, 12.5 μM, 6.25 μM, 3.125 μM, 1.56 μM, and 0.78125 μM as well as a vehicle control (0.5% DMSO). The concentration of DMSO was constant between all conditions. Assays were performed in duplicate. Infected plates were returned to the incubator and the viral infection was allowed to progress for four days. On the fourth day, 50 μL of cell free supernatant was collected from each well and used to infect a new 96 well plate seeded with a confluent monolayer of MRCS fibroblasts along with 50 μL of media to bring the total volume to 100 μL. The next day the media was removed and the infected monolayer was fixed with cold methanol, and Immediate Early proteins were detected by immunofluorescence assays to quantify the number of cells that were infected with HCMV. IE gene expression was quantified within five random fields within each well and corresponding numbers were utilized to determine viral replication. Results from each well were normalized to the vehicle control well so as to allow a percent reduction from no drug treatment to be calculated. Results were plotted using either Prism Software or CDD Vault in order to calculate IC50s.
With `CC(c1ccc(-c2ncccn2)cc1)c1cnc(N2CCc3ccccc3C2)s1` (centres unmarked) [Example 17], the half-maximal inhibitory concentration (IC50) (as a rule, the midpoint of a concentration-inhibition curve) was 4.2 µM. As for `CC(c1ccc(-n2cccn2)cc1)c1cnc(N2CCc3ccccc3C2)s1` (centres unmarked) [Example 13], the figure is 3.6 µM; as for `CC(c1ccc(N2CCCCC2)cc1)c1cnc(N2CCc3ccccc3C2)s1` (centres unmarked) [Example 15], above 25 µM. With `CC(c1cccc(-n2cccn2)c1)c1cnc(N2CCc3ccc(C(N)=O)cc3C2)s1` (centres unmarked) [Example SBX088], the IC50 was determined as 1.6 µM. In the case of `c1cc(Cc2cnc(N3CCC4OCCCC4C3)s2)cc(-n2cccn2)c1` (centres unmarked) [Example 33], the IC50 was found to be 11.5 µM. For the compound `c1cnn(-c2ccc(Cc3cnc(N4CCOCC4)s3)cc2)c1` [Example 27], the IC50 was found to be 10.3 µM. The result for `c1ccc(CNc2ncc(Cc3cccc(-n4cccn4)c3)s2)cc1` [Example 29] reads above 50 µM; that for `CC(C)c1ccc(CNc2ncc(Cc3ccc(-n4cccn4)cc3)s2)cc1` [Example 24], above 50 µM. The result for `c1ccc2c(c1)CCN(c1ncc(Cc3ccc4nccnc4c3)s1)C2` [Example 4] reads 5.6 µM. Consider `N#Cc1ccc2c(c1)CN(c1ncc(Cc3cccc(-n4cccn4)c3)s1)CC2` [Example 36], for which the IC50 turned out to be 3.3 µM. Consider `CC(c1ccc2nccnc2c1)c1cnc(N2CCC(c3ccccc3)C2)s1` (centres unmarked) [Example 10], for which the IC50 was above 25 µM. With `CC(c1cccc(-n2cccn2)c1)c1cnc(N2CCc3ccc(Br)cc3C2)s1` (centres unmarked) [Example SBX084], the half-inhibitory concentration (IC50) was 3.8 µM. The result for `C=C(c1cccc(-n2cccn2)c1)c1cnc(N2CCc3ccccc3C2)s1` [Example 19] reads 7 µM; that for `CC(O)(c1ccc2nccnc2c1)c1cnc(N2CCc3ccccc3C2)s1` (centres unmarked) [Example 2], 24 µM; that for `c1ccc(CNc2ncc(Cc3ccc(-n4cccn4)cc3)s2)cc1` [Example 21], above 50 µM. As to `CC(C)OC1CN(c2ncc(Cc3cccc(-n4cccn4)c3)s2)C1` [Example 30], the IC50 stood at 12 µM.

For `C=C(c1ccc(-n2cccn2)cc1)c1cnc(N2CCc3ccccc3C2)s1` [Example 14], the IC50 amounted to 28.7 µM. As for `CC(Nc1ncc(Cc2cccc(-n3cccn3)c2)s1)c1ccccc1` (centres unmarked) [Example 34], the figure is above 50 µM.

Regarding `CC(c1cnc(N2CCc3ccccc3C2)s1)c1c[nH]c2ccccc12` (centres unmarked) [Example 9], the IC50 turned out to be 12.7 µM. On to `CC(C)OC1CN(c2ncc(Cc3ccc(-n4cccn4)cc3)s2)C1` [Example 22], for which the IC50 is above 50 µM. For the compound `CC(O)(c1ccc2nccnc2c1)c1cnc(-c2cnc(Cl)s2)s1` (centres unmarked) [Example 1], the IC50 is 21.4 µM. Regarding `c1cc(Cc2cnc(N3CCc4ccccc4C3)s2)cc(-n2cccn2)c1` [Example 20], the IC50 came out at 8.9 µM. The result for `CC(c1cccc(-n2cccn2)c1)c1cnc(N2CCc3ccccc3C2)s1` (centres unmarked) [Example 18] reads 1.6 µM; that for `CC(C)c1ccc(CNc2ncc(Cc3cccc(-n4cccn4)c3)s2)cc1` [Example 32], above 50 µM. On to `O=C(c1ccc2nccnc2c1)c1cnc(N2CCc3ccccc3C2)s1` [Example 5], for which the IC50 is above 50 µM. The result for `c1ccc2c(c1)CCN(c1ncc(Cc3ccc(-n4cccn4)cc3)s1)C2` [Example 16] reads 12.5 µM. `CC(c1cccc(-n2cccn2)c1)c1cnc(N2CCc3ccc(C#N)cc3C2)s1` (centres unmarked) [Example SBX082]: the IC50 stood at 7.3 µM. In the case of `c1cnn(-c2ccc(Cc3cnc(N4CCC5OCCCC5C4)s3)cc2)c1` (centres unmarked) [Example 25], the IC50 is 11 µM. With `C=C(c1ccc2nccnc2c1)c1cnc(N2CCc3ccccc3C2)s1` [Example 3], the IC50 was above 50 µM. As for `c1cc(Cc2cnc(N3CCCc4ccccc43)s2)cc(-n2cccn2)c1` [Example 31], the figure is above 50 µM; as for `COC(c1cccc(-n2cccn2)c1)c1cnc(N2CCc3ccc(C(N)=O)cc3C2)s1` (centres unmarked) [Example SBX087], 1.4 µM. The result for `CC(Nc1ncc(Cc2ccc(-n3cccn3)cc2)s1)c1ccccc1` (centres unmarked) [Example 26] reads above 50 µM; that for `c1cc(Cc2cnc(N3CCOCC3)s2)cc(-n2cccn2)c1` [Example 35], above 27 µM; that for `OC(c1ccc2nccnc2c1)c1cnc(N2CCc3ccccc3C2)s1` (centres unmarked) [Example 6], 5.1 µM. For the compound `CC(c1ccc2nccnc2c1)c1cnc(N2CCC(Cc3ccccc3)CC2)s1` (centres unmarked) [Example 11], the IC50 was above 25 µM.

On to `N#Cc1ccc2c(c1)CN(c1ncc(Cc3ccc(-n4cccn4)cc3)s1)CC2` [Example 28], for which the IC50 turned out to be 9.7 µM. The result for `CC(c1cccnc1)c1cnc(N2CCc3ccccc3C2)s1` (centres unmarked) [Example 8] reads 16.4 µM; that for `c1ccc2c(c1)CCCN2c1ncc(Cc2ccc(-n3cccn3)cc2)s1` [Example 23], above 50 µM; that for `CC(c1cccc(-n2ccnc2)c1)c1cnc(N2CCc3ccc(C#N)cc3C2)s1` (centres unmarked) [Example SBX080], 4.9 µM. Turning to `C=C(c1ccc2nccnc2c1)c1cnc(NCc2ccccc2)s1` [Example 12], the IC50 was above 50 µM. Consider `CC(c1ccccc1)c1cnc(N2CCc3ccccc3C2)s1` (centres unmarked) [Example 7], for which the IC50 was above 50 µM.

Source of the values: patent US11358961B2, “Anti-HCMV compositions and methods” (Evrys Bio, LLC, priority 2014, dated 2022).
